How the values were obtained:
Conditions in all cases: 72 h
Calu-3 [1] = assay: cell viability relative to DMSO; higher = less toxic
Vero E6 [2] = assay: as above
U2OS [3] = assay: as above
Caco-2 [4] = assay: as above
HepG2 [5] = assay: as above
Calu-3 [6] = assay: drug sensitivity score (DSS) for viability; higher = more toxic; extreme values may be limits of the assay
Vero E6 [7] = assay: as above
U2OS [8] = assay: as above
Caco-2 [9] = assay: as above
HepG2 [10] = assay: as above
Vero E6 [11] = assay: relative viability EC50 (midpoint between 100% and the lowest measured viability); higher = less toxic
U2OS [12] = assay: as above
Caco-2 [13] = assay: as above
HepG2 [14] = assay: as above
Calu-3 [15] = assay: as above

| Compound | cell viability (Calu-3 [1]; 1 nM) [%] | cell viability (Calu-3 [1]; 10 nM) [%] | cell viability (Calu-3 [1]; 100 nM) [%] | cell viability (Calu-3 [1]; 1000 nM) [%] | cell viability (Calu-3 [1]; 10000 nM) [%] | cell viability (Vero E6 [2]; 1 nM) [%] | cell viability (Vero E6 [2]; 10 nM) [%] | cell viability (Vero E6 [2]; 100 nM) [%] | cell viability (Vero E6 [2]; 1000 nM) [%] | cell viability (Vero E6 [2]; 10000 nM) [%] | cell viability (U2OS [3]; 1 nM) [%] | cell viability (U2OS [3]; 10 nM) [%] | cell viability (U2OS [3]; 100 nM) [%] | cell viability (U2OS [3]; 1000 nM) [%] | cell viability (U2OS [3]; 10000 nM) [%] | cell viability (Caco-2 [4]; 1 nM) [%] | cell viability (Caco-2 [4]; 10 nM) [%] | cell viability (Caco-2 [4]; 100 nM) [%] | cell viability (Caco-2 [4]; 1000 nM) [%] | cell viability (Caco-2 [4]; 10000 nM) [%] | cell viability (HepG2 [5]; 1 nM) [%] | cell viability (HepG2 [5]; 10 nM) [%] | cell viability (HepG2 [5]; 100 nM) [%] | cell viability (HepG2 [5]; 1000 nM) [%] | cell viability (HepG2 [5]; 10000 nM) [%] | drug sensitivity score (Calu-3 [6]) | drug sensitivity score (Vero E6 [7]) | drug sensitivity score (U2OS [8]) | drug sensitivity score (Caco-2 [9]) | drug sensitivity score (HepG2 [10]) | relative viability EC50 (Vero E6 [11]) [µM] | relative viability EC50 (U2OS [12]) [µM] | relative viability EC50 (Caco-2 [13]) [µM] | relative viability EC50 (HepG2 [14]) [µM] | relative viability EC50 (Calu-3 [15]) [µM] |
| --- | --- | --- | --- | --- | --- | --- | --- | --- | --- | --- | --- | --- | --- | --- | --- | --- | --- | --- | --- | --- | --- | --- | --- | --- | --- | --- | --- | --- | --- | --- | --- | --- | --- | --- | --- |
| O=C(CCCCCCC(=O)NO)NO [SBHA] | 104 | 95.9 | 86.4 | 90.1 | 72.6 | 106 | 99.8 | 99.6 | 102 | 80.4 | 104 | 96.3 | 100 | 98.2 | 81.7 | 95.6 | 99.4 | 109 | 98.1 | 86.7 | 104 | 96.9 | 105 | 94.4 | 48.7 | 2.4 | 0.4 | 0.7 | 0.2 | 3.6 | > 10 | > 10 | > 10 | 2.27 | – |
| O=C(NO)c1ccc2[nH]c(=O)c(CCCc3ccccc3)nc2c1 [TCS-2210] | 136 | 93.7 | 98 | 78.4 | 62 | 87.5 | 96.1 | 89 | 98.4 | 101 | 99.1 | 96.3 | 102 | 94.4 | 66.8 | 94.2 | 95.8 | 101 | 94.8 | 96.4 | 108 | 96.5 | 100 | 94.7 | 39.9 | 4.3 | 0 | 2.4 | 0 | 4.1 | > 10 | – | > 10 | 2.44 | – |
| Oc1nc(-c2ccc(C(F)(F)F)cc2)nc2c1CSCC2 [XAV-939] | 110 | 94 | 97.1 | 84.1 | 71.7 | 94.6 | 98.5 | 97 | 90.4 | 69.6 | 105 | 101 | 101 | 99.2 | 96.4 | 103 | 97 | 99.8 | 92.3 | 101 | 101 | 108 | 98.2 | 99.7 | 94.4 | 2.7 | 2.4 | 0 | 0 | 0 | – | > 10 | > 10 | > 10 | – |
| O=C(O)COC(=O)Cc1ccccc1Nc1c(Cl)cccc1Cl [aceclofenac] | – | – | – | – | – | – | – | – | – | – | – | – | – | – | – | – | – | – | – | – | – | – | – | – | – | 0 | 0 | 0 | – | 0 | – | – | – | – | – |
| Nc1c(CC(=O)O)cccc1C(=O)c1ccccc1 [amfenac] | – | – | – | – | – | 94.1 | 102 | 97.2 | 102 | 102 | 101 | 96 | 102 | 97.2 | 104 | 101 | 97.4 | 104 | 94.1 | 97.4 | 103 | 105 | 97.9 | 106 | 101 | – | 0 | 0 | 0 | 0 | > 10 | > 10 | > 10 | > 10 | – |
| Nc1ncn([C@@H]2O[C@H](CO)[C@@H](O)[C@H]2O)c(=O)n1 [azacitidine] | 102 | 90.9 | 88.5 | 87.2 | 64 | 97.3 | 102 | 95.9 | 90.5 | 37.3 | 98 | 102 | 98.6 | 102 | 98.4 | 87.3 | 104 | 96.1 | 90.1 | 67.9 | 97.9 | 99.7 | 95.9 | 94.1 | 57.8 | 3.5 | 5 | 0 | 2.6 | 3.1 | 1.98 | > 10 | – | – | – |
| CC(C)(C)[C@H]1CC[C@H](CC2=C(O)C(=O)c3ccccc3C2=O)CC1 [buparvaquone] | 91.4 | 104 | 95 | 96.6 | 94 | 102 | 101 | 105 | 82.7 | 65.5 | 97.4 | 100 | 99.3 | 102 | 97.6 | 94.1 | 101 | 102 | 111 | 81.3 | 99.5 | 104 | 98.9 | 93.9 | 71.1 | 0 | 3.8 | 0 | 0.3 | 2.2 | – | > 10 | > 10 | – | > 10 |
| CNC(=O)Oc1cccc2ccccc12 [carbaril] | – | – | – | – | – | – | – | – | – | – | – | – | – | – | – | – | – | – | – | – | – | – | – | – | – | 0 | 0 | 0 | – | 0 | – | – | – | – | – |
| CC[C@H](C)[C@@H]([C@@H](CC(=O)N1CCC[C@H]1[C@H](OC)[C@@H](C)C(=O)N[C@@H](Cc1ccccc1)c1nccs1)OC)N(C)C(=O)[C@@H](NC(=O)[C@H](C(C)C)N(C)C)C(C)C [dolastatin-10] | – | – | – | – | – | 38.5 | 24.6 | 18.4 | 17.9 | 9.9 | 35.8 | 22.7 | 15.4 | 15.6 | 11.1 | 51.5 | 40.6 | 35 | 32.2 | 20.8 | 24.5 | 32.5 | 32.5 | 29.4 | 22.2 | – | 39 | 40 | 31.3 | 34 | < 0.001 | < 0.001 | < 0.001 | < 0.001 | – |
| CC1=NN(c2ccc(C)c(C)c2)C(=O)/C1=N\Nc1cccc(-c2cccc(C(=O)O)c2)c1O [eltrombopag] | 114 | 102 | 100 | 96.7 | 74.3 | 97.6 | 93.5 | 91.9 | 90.7 | 82.9 | 95.6 | 102 | 100 | 101 | 71.1 | 93.5 | 89.8 | 93.5 | 97.9 | 82.1 | 97.4 | 92 | 105 | 96.8 | 44.5 | 1.5 | 0.8 | 1.2 | 0 | 3.4 | > 10 | – | > 10 | 2.71 | – |
| Nc1nc2c(ncn2COC(CO)CO)c(=O)[nH]1 [ganciclovir] | – | – | – | – | – | – | – | – | – | – | – | – | – | – | – | – | – | – | – | – | – | – | – | – | – | 0 | 0 | 0 | – | 0 | – | – | – | – | – |
| CCC(=O)O[C@@H]1CC(=O)O[C@H](C)C/C=C/C=C/[C@H](O)[C@H](C)C[C@H](CC=O)[C@H](O[C@@H]2O[C@H](C)[C@@H](O[C@H]3C[C@@](C)(O)[C@@H](OC(=O)CC)[C@H](C)O3)[C@H](N(C)C)[C@H]2O)[C@H]1OC [midecamycin] | – | – | – | – | – | 105 | 97.7 | 101 | 102 | 95.2 | 97.1 | 97 | 99.2 | 96.2 | 97.6 | 94.4 | 99.1 | 103 | 91.8 | 91.4 | 103 | 93.1 | 91.5 | 98 | 74 | – | 0 | 0 | 0 | 1.3 | > 10 | > 10 | > 10 | – | – |
| CCCOc1ccc2[nH]c(NC(=O)OC)nc2c1 [oxibendazole] | 102 | 97.2 | 97.1 | 97.8 | 63 | 95.1 | 96.3 | 90.2 | 63.8 | 41.9 | 101 | 95.2 | 101 | 102 | 47.5 | 94.8 | 93.7 | 107 | 96.4 | 63.1 | 91.1 | 95.8 | 94.6 | 103 | 54.4 | 2.1 | 7.9 | 2.6 | 2.4 | 2.1 | 0.54 | 3.4 | – | – | – |
| NS(=O)(=O)OC[C@@H]1C[C@@H](n2ccc3c(N[C@H]4CCc5ccccc54)ncnc32)C[C@@H]1O [pevonedistat] | 94.9 | 97.2 | 104 | 97.4 | 71.8 | 96.9 | 107 | 103 | 104 | 24.3 | 98.6 | 98.6 | 101 | 71 | 14.9 | 95.3 | 106 | 87.7 | 92.4 | 60.1 | 96.3 | 111 | 77.6 | 58.2 | 32.7 | 1.6 | 3.9 | 8.8 | 3.1 | 10.3 | 3.45 | 1.3 | – | 0.401 | – |
| N=C(N)NC(=O)c1cnccn1 [pyrazinoylguanidine] | – | – | – | – | – | 99.8 | 106 | 104 | 106 | 99.7 | – | – | – | – | – | 107 | 100 | 101 | 99.7 | 101 | 104 | 97.1 | 94.9 | 99.1 | 104 | – | 0 | – | 0 | 0 | > 10 | – | > 10 | > 10 | – |
| C=C[C@H]1CN2CC[C@H]1C[C@@H]2[C@@H](O)c1ccnc2ccc(OC)cc12 [quinidine] | – | – | – | – | – | – | – | – | – | – | – | – | – | – | – | – | – | – | – | – | – | – | – | – | – | 0 | 0 | 0 | – | 0 | – | – | – | – | – |
| CNCc1ccc(-c2[nH]c3cc(F)cc4c3c2CCNC4=O)cc1 [rucaparib] | – | – | – | – | – | 96.4 | 99.9 | 96.1 | 93.7 | 93.3 | 101 | 93.4 | 98.7 | 102 | 106 | 94.7 | 91.2 | 97.4 | 94.5 | 89.6 | 98.8 | 109 | 95.5 | 92 | 78.7 | – | 0 | 0 | 0 | 1.1 | > 10 | > 10 | > 10 | > 10 | – |
| CCN1CCCC1CNC(=O)c1cc(S(N)(=O)=O)ccc1OC (centres undefined) [sulpiride] | – | – | – | – | – | – | – | – | – | – | – | – | – | – | – | – | – | – | – | – | – | – | – | – | – | 0 | 0 | 0 | – | 0 | – | – | – | – | – |
| O=c1ccn([C@@H]2O[C@H](CO)[C@@H](O)[C@H]2O)c(=O)[nH]1 [uridine] | – | – | – | – | – | – | – | – | – | – | – | – | – | – | – | – | – | – | – | – | – | – | – | – | – | 0 | 0 | 0 | – | 0.8 | – | – | – | – | – |
